According to the NIST ThermoML archive (doi:10.1016/j.tca.2014.04.026):

Assay: molar heat capacity at constant pressure
Conditions: 101 kPa, Liquid, Small sample (50 mg) DSC

CCn1cc[n+](C)c1.N#C[C-](C#N)C#N [1-ethyl-3-methyl-1H-imidazolium tricyanomethanide]
Conditions	molar heat capacity at constant pressure [J/K/mol]
296.2 K	357
300.2 K	360
304.2 K	362
308.2 K	364
312.2 K	366
316.2 K	367
320.2 K	369
324.2 K	370
328.2 K	372
332.2 K	374
336.2 K	377
340.2 K	379
344.2 K	382
348.2 K	384
352.2 K	387
356.2 K	390
360.2 K	393
364.2 K	396
368.2 K	399
372.2 K	403
